Experimental data: ChEMBL document CHEMBL1154040, “Synthesis and evaluation of novel F-18 labeled fluoroarylvaline derivatives: potential PET imaging agents for tumor detection” (Bioorg Med Chem Lett, 2009)

How the values were obtained:
Kidney [1] = assay: Biodistribution in S180 tumor-bearing KM mouse kidney assessed per gram of tissue at 240 to 370 kBq, iv after 30 mins; assay type: ADME, organism-based; conditions: in vivo, 0.5 h
Liver [2] = assay: Biodistribution in S180 tumor-bearing KM mouse liver assessed per gram of tissue weight at 240 to 370 kBq, iv after 15 mins; assay type: ADME, organism-based; conditions: in vivo, 0.25 h
Lung [3] = assay: Biodistribution in S180 tumor-bearing KM mouse lung assessed per gram of tissue at 240 to 370 kBq, iv after 120 mins; assay type: ADME, organism-based; conditions: in vivo, 2 h
[4] = Ratio of drug level in S180 tumor to muscleKM mouse at 240 to 370 kBq, iv after 120 mins; assay type: ADME, organism-based, KM; conditions: in vivo, 2 h
Liver [5] = assay: Biodistribution in S180 tumor-bearing KM mouse liver assessed per gram of tissue at 240 to 370 kBq, iv after 120 mins; assay type: ADME, organism-based; conditions: in vivo, 2 h
[6] = Biodistribution in S180 tumor present in KM mouse assessed per gram of tissue at 240 to 370 kBq, iv after 5 mins; assay type: ADME, organism-based, Neoplasm; conditions: in vivo
Lung [7] = assay: Biodistribution in S180 tumor-bearing KM mouse lung assessed per gram of tissue at 240 to 370 kBq, iv after 30 mins; assay type: ADME, organism-based; conditions: in vivo, 0.5 h
Brain [8] = assay: Biodistribution in S180 tumor-bearing KM mouse brain assessed per gram of tissue at 240 to 370 kBq, iv after 30 mins; assay type: ADME, organism-based; conditions: in vivo, 0.5 h
Spleen [9] = assay: Biodistribution in S180 tumor-bearing KM mouse spleen assessed per gram of tissue at 240 to 370 kBq, iv after 120 mins; assay type: ADME, organism-based; conditions: in vivo, 2 h
[10] = Biodistribution in S180 tumor present in KM mouse assessed per gram of tissue at 240 to 370 kBq, iv after 120 mins; assay type: ADME, organism-based, Neoplasm; conditions: in vivo, 2 h
[11] = Ratio of drug level in S180 tumor to muscleKM mouse at 240 to 370 kBq, iv after 5 mins; assay type: ADME, organism-based, KM; conditions: in vivo
Brain [12] = assay: Biodistribution in S180 tumor-bearing KM mouse brain assessed per gram of tissue at 240 to 370 kBq, iv after 60 mins; assay type: ADME, organism-based; conditions: in vivo, 1 h
Spleen [13] = assay: Biodistribution in S180 tumor-bearing KM mouse spleen assessed per gram of tissue at 240 to 370 kBq, iv after 5 mins; assay type: ADME, organism-based; conditions: in vivo
Brain [14] = assay: Biodistribution in S180 tumor-bearing KM mouse brain assessed per gram of tissue at 240 to 370 kBq, iv after 5 mins; assay type: ADME, organism-based; conditions: in vivo
[15] = Ratio of drug level in S180 tumor to muscleKM mouse at 240 to 370 kBq, iv after 60 mins; assay type: ADME, organism-based, KM; conditions: in vivo, 1 h
Brain [16] = assay: Biodistribution in S180 tumor-bearing KM mouse brain assessed per gram of tissue at 240 to 370 kBq, iv after 120 mins; assay type: ADME, organism-based; conditions: in vivo, 2 h
Blood [17] = assay: Biodistribution in S180 tumor-bearing KM mouse blood assessed per gram of tissue weight at 240 to 370 kBq, iv after 120 mins; assay type: ADME, organism-based; conditions: in vivo, 2 h
Lung [18] = assay: Biodistribution in S180 tumor-bearing KM mouse lung assessed per gram of tissue at 240 to 370 kBq, iv after 5 mins; assay type: ADME, organism-based; conditions: in vivo
Spleen [19] = assay: Biodistribution in S180 tumor-bearing KM mouse spleen assessed per gram of tissue at 240 to 370 kBq, iv after 15 mins; assay type: ADME, organism-based; conditions: in vivo, 0.25 h
[20] = Ratio of drug level in S180 tumor to brain KM mouse at 240 to 370 kBq, iv after 30 mins; assay type: ADME, organism-based; conditions: in vivo, 0.5 h
Liver [21] = assay: Biodistribution in S180 tumor-bearing KM mouse liver assessed per gram of tissue at 240 to 370 kBq, iv after 60 mins; assay type: ADME, organism-based; conditions: in vivo, 1 h
Blood [22] = assay: Biodistribution in S180 tumor-bearing KM mouse blood assessed per gram of tissue weight at 240 to 370 kBq, iv after 30 mins; assay type: ADME, organism-based; conditions: in vivo, 0.5 h
Kidney [23] = assay: Biodistribution in S180 tumor-bearing KM mouse kidney assessed per gram of tissue at 240 to 370 kBq, iv after 120 mins; assay type: ADME, organism-based; conditions: in vivo, 2 h
[24] = Ratio of drug level in S180 tumor to blood in KM mouse at 240 to 370 kBq, iv after 5mins; assay type: ADME, organism-based; conditions: tumour
[25] = Ratio of drug level in S180 tumor to blood in KM mouse at 240 to 370 kBq, iv after 120 mins; assay type: ADME, organism-based; conditions: tumour, 2 h
[26] = Ratio of drug level in S180 tumor to brain KM mouse at 240 to 370 kBq, iv after 120 mins; assay type: ADME, organism-based; conditions: in vivo, 2 h
[27] = Ratio of drug level in S180 tumor to blood in KM mouse at 240 to 370 kBq, iv after 15mins; assay type: ADME, organism-based; conditions: tumour, 0.25 h
[28] = Ratio of drug level in S180 tumor to muscleKM mouse at 240 to 370 kBq, iv after 15 mins; assay type: ADME, organism-based, KM; conditions: in vivo, 0.25 h
Heart [29] = assay: Biodistribution in S180 tumor-bearing KM mouse heart assessed per gram of tissue weight at 240 to 370 kBq, iv after 30 mins; assay type: ADME, organism-based; conditions: in vivo, 0.5 h
Spleen [30] = assay: Biodistribution in S180 tumor-bearing KM mouse spleen assessed per gram of tissue at 240 to 370 kBq, iv after 60 mins; assay type: ADME, organism-based; conditions: in vivo, 1 h
Muscle tissue [31] = assay: Biodistribution in S180 tumor-bearing KM mouse muscle assessed per gram of tissue at 240 to 370 kBq, iv after 60 mins; assay type: ADME, organism-based; conditions: in vivo, 1 h
Heart [32] = assay: Biodistribution in S180 tumor-bearing KM mouse heart assessed per gram of tissue weight at 240 to 370 kBq, iv after 120 mins; assay type: ADME, organism-based; conditions: in vivo, 2 h
Blood [33] = assay: Biodistribution in S180 tumor-bearing KM mouse blood assessed per gram of tissue weight at 240 to 370 kBq, iv after 15 mins; assay type: ADME, organism-based; conditions: in vivo, 0.25 h
Heart [34] = assay: Biodistribution in S180 tumor-bearing KM mouse heart assessed per gram of tissue weight at 240 to 370 kBq, iv after 15 mins; assay type: ADME, organism-based; conditions: in vivo, 0.25 h
Kidney [35] = assay: Biodistribution in S180 tumor-bearing KM mouse kidney assessed per gram of tissue at 240 to 370 kBq, iv after 5 mins; assay type: ADME, organism-based; conditions: in vivo
Heart [36] = assay: Biodistribution in S180 tumor-bearing KM mouse heart assessed per gram of tissue weight at 240 to 370 kBq, iv after 60 mins; assay type: ADME, organism-based; conditions: in vivo, 1 h
[37] = Biodistribution in S180 tumor present in KM mouse assessed per gram of tissue at 240 to 370 kBq, iv after 15 mins; assay type: ADME, organism-based, Neoplasm; conditions: in vivo, 0.25 h
Heart [38] = assay: Biodistribution in S180 tumor-bearing KM mouse heart assessed per gram of tissue weight at 240 to 370 kBq, iv after 5 mins; assay type: ADME, organism-based; conditions: in vivo
[39] = Biodistribution in S180 tumor present in KM mouse assessed per gram of tissue at 240 to 370 kBq, iv after 30 mins; assay type: ADME, organism-based, Neoplasm; conditions: in vivo, 0.5 h
Lung [40] = assay: Biodistribution in S180 tumor-bearing KM mouse lung assessed per gram of tissue at 240 to 370 kBq, iv after 60 mins; assay type: ADME, organism-based; conditions: in vivo, 1 h
Liver [41] = assay: Biodistribution in S180 tumor-bearing KM mouse liver assessed per gram of tissue weight at 240 to 370 kBq, iv after 5 mins; assay type: ADME, organism-based; conditions: in vivo
Lung [42] = assay: Biodistribution in S180 tumor-bearing KM mouse lung assessed per gram of tissue at 240 to 370 kBq, iv after 15 mins; assay type: ADME, organism-based; conditions: in vivo, 0.25 h
Muscle tissue [43] = assay: Biodistribution in S180 tumor-bearing KM mouse muscle assessed per gram of tissue at 240 to 370 kBq, iv after 120 mins; assay type: ADME, organism-based; conditions: in vivo, 2 h

OC[C@H]1O[C@@H](O)[C@H]([18F])[C@@H](O)[C@@H]1O [FLUDEOXYGLUCOSE-F18]
Drug uptake (Kidney [1]): 0.61 %ID | Drug uptake (Liver [2]): 0.47 %ID | Drug uptake (Lung [3]): 0.52 %ID | tumor/muscle ratio [4]: 2.2 | Drug uptake (Liver [5]): 0.2 %ID | Drug uptake [6]: 1.27 %ID | Drug uptake (Lung [7]): 0.64 %ID | Drug uptake (Brain [8]): 3.07 %ID | Drug uptake (Spleen [9]): 0.78 %ID | Drug uptake [10]: 1.7 %ID | tumor/muscle ratio [11]: 0.81 | Drug uptake (Brain [12]): 2.11 %ID | Drug uptake (Spleen [13]): 1.31 %ID | Drug uptake (Brain [14]): 2.4 %ID | tumor/muscle ratio [15]: 2.23 | Drug uptake (Brain [16]): 1.28 %ID | Drug uptake (Blood [17]): 0.11 %ID | Drug uptake (Lung [18]): 1.52 %ID | Drug uptake (Spleen [19]): 0.95 %ID | tumor/brain ratio [20]: 0.61 | Drug uptake (Liver [21]): 0.22 %ID | Drug uptake (Blood [22]): 0.16 %ID | Drug uptake (Kidney [23]): 0.25 %ID | tumor/blood ratio [24]: 1.17 | tumor/blood ratio [25]: 15.8 | tumor/brain ratio [26]: 1.33 | tumor/blood ratio [27]: 3.42 | tumor/muscle ratio [28]: 1.37 | Drug uptake (Heart [29]): 2.69 %ID | Drug uptake (Spleen [30]): 0.83 %ID | Drug uptake (Muscle tissue [31]): 0.97 %ID | Drug uptake (Heart [32]): 6.27 %ID | Drug uptake (Blood [33]): 0.46 %ID | Drug uptake (Heart [34]): 2.5 %ID | Drug uptake (Kidney [35]): 2.16 %ID | Drug uptake (Heart [36]): 3.24 %ID | Drug uptake [37]: 1.56 %ID | Drug uptake (Heart [38]): 2.6 %ID | Drug uptake [39]: 1.86 %ID | Drug uptake (Lung [40]): 0.57 %ID | Drug uptake (Liver [41]): 1.35 %ID | Drug uptake (Lung [42]): 0.77 %ID | Drug uptake (Muscle tissue [43]): 0.78 %ID
